In patent US9850247B2 (Almac Discovery Limited, priority 2013, dated 2017):

Tests used:
Wee-1 kinase = biological target: T1, Wee-1 kinase (Homo sapiens, UniProt P30291); test: Measurement of Wee-1 kinase activity (ADP-Glo luminescent kit); type: biochemical
T1 construct: purchased Invitrogen PV3817
Protocol: Method 1: Measurement of Wee-1 Kinase Activity
In the measurement of Wee-1 activity, a commercial peptide Poly(Lys Tyr (4:1)) hydrobromide was purchased from Sigma Aldrich and used as the substrate. Activated Wee-1 kinase was purchased from Invitrogen (PV3817) and an ADP-Glo luminescent kit was purchased from Promega.
All reactions took place in […] volumes in reaction buffer containing 40 mM Tris-HCl and 20 mM magnesium chloride, supplemented with 0.1 mg/mL bovine serum albumin and 2 mM DTT. Compounds were serially diluted in buffer and 5 μL of each concentration pipetted into a white 384 well plate (Sigma Aldrich M6186). A 5 μL aliquot of the Wee-1 enzyme was added to each well and the plate centrifuged for 1 min to ensure mixing of the enzyme and inhibitor.
The plate was incubated at room temperature for 30 minutes before the addition of 2.0 μg/mL of substrate and 30 μM ATP in a 5 μL aliquot. The plate was centrifuged for one minute and incubated for 1 h at RT.
15 µL of ADP-Glo stop reagent was added to each well to quench the reaction and deplete unconverted ATP. The plate was incubated for a further 40 min in the dark at RT.
30 μL of ADP-Glo kinase detection reagent was added to each well, converting ADP to ATP, catalysing the generation of luciferin by luciferase. The plate was shaken for 1 min, and incubated in the dark for an additional hour.
Luminescence from each well was detected using the Biotek Synergy4 HD plate reader and the percentage inhibition of kinase activity calculated for each inhibitor tested. Positive (kinase only) and negative (no kinase) controls were added to each plate to ensure specific interaction of kinase and inhibitor. The IC50 concentration for each inhibitor was calculated by plotting the percentage kinase inhibition against concentration of inhibitor and the curve generated by non-linear regression fitting.

[1] = CLint estimates using human liver microsomes (Method 4); type: in vitro ADME; details: pH 7.4, 1 μM compound, read-out: Mics - CLint (HLM CLint)
Protocol: Method 4: Determination of CLint Estimates Using Human liver microsomes Test compounds (final concentration=1 μM; final DMSO concentration=0.1%) were incubated in 0.1 M phosphate buffer pH 7.4 with human liver microsomes (0.5 mg of protein/mL) at 37° C. Reactions were started by addition of NADPH in 0.1 M phosphate buffer pH 7.4 (final concentration 1 mM). 40 μL aliquots were removed at 2, 5, 10, 15, 20, 30, 40 and 50 min. Reactions were quenched in 80 μL of ice-cold methanol. Samples were subsequently frozen overnight then centrifuged at 3500 rpm for 20 min at 4° C. The supernatants were removed and transferred into analytical plates and analysed by LC/MS/MS. LC/MS/MS Method: All samples were analysed on a Waters Acquity I-Class coupled to a Waters Xevo TQD mass spectrometer. A Waters BEH C18 2.1×50 mm 1.7 μm column was used and mobile phases were water and methanol containing 0.1% formic acid as modifier. Analysis was by multiple reaction monitoring and conditions were optimised for each test compound. Data Analyses: From a plot of 1n peak area against time, the gradient of the line is determined. Subsequently, half-life and intrinsic clearance are calculated using the following equations. [formula] [formula] [formula] where V=Incubation volume (μL)/number of cells Method 5: Determination of Kinetic Solubility (in PBS Buffer)

T1 sequence (P30291 whole entry): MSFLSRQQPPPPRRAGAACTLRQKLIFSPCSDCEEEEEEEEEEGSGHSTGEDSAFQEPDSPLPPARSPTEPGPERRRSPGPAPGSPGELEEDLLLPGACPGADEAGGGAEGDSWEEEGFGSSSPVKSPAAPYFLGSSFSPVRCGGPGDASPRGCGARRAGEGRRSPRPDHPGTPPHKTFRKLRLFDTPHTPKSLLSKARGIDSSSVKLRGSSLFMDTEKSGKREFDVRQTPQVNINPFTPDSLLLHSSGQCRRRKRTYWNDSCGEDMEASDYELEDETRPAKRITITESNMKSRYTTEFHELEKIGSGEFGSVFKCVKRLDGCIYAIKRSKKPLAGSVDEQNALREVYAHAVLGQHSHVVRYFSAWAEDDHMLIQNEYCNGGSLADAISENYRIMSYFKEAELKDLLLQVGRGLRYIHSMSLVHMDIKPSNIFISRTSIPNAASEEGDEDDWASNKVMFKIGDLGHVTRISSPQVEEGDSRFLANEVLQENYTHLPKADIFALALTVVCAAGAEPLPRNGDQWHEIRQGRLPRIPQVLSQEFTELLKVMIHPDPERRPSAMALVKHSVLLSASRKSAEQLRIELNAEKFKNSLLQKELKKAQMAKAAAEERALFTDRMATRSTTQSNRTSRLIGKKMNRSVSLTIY

IC50 (Wee-1 kinase) [nM] | microsomal CLint at 1 μM [1] [µL/min/mg] | Compound
10 to 100 | ≤ 15 | COCc1cc(Nc2ncc3c(n2)N(C)CN(c2c(Cl)cccc2Cl)C3=O)ccc1N1CCN(C)[C@H](C)C1 [Example 67, (R)-3-(2,6-dichlorophenyl)-7-((4-(3,4-dimethylpiperazin-1-yl)-3-(methoxymethyl)phenyl)amino)-1-methyl-2,3-dihydropyrimido[4,5-d]pyrimidin-4(1H)-one]
10 to 100 | 15 to 50 | C[C@@H]1CN(c2ccc(Nc3ncc4c(n3)N(C)CN(c3c(Cl)cccc3Cl)C4=O)cc2)[C@H](C)CN1 [Example 79, 3-(2,6-dichlorophenyl)-7-((4-((2R,5R)-2,5-dimethylpiperazin-1-yl)phenyl)amino)-1-methyl-2,3-dihydropyrimido[4,5-d]pyrimidin-4(1H)-one]
10 to 100 | ≤ 15 | CN1CN(c2c(Cl)cccc2Cl)C(=O)c2cnc(Nc3ccc(OC4CCNCC4)cc3)nc21 [Example 87, 3-(2,6-dichlorophenyl)-1-methyl-7-((4-(piperidin-4-yloxy)phenyl)amino)-2,3-dihydropyrimido[4,5-d]pyrimidin-4(1H)-one]
10 to 100 | 15 to 50 | CN1CCC(Oc2ccc(Nc3ncc4c(n3)N(C)CN(c3c(Cl)cccc3Cl)C4=O)cc2)CC1 [Example 90, 3-(2,6-dichlorophenyl)-1-methyl-7-((4-((1-methylpiperidin-4-yl)oxy)phenyl)amino)-2,3-dihydropyrimido[4,5-d]pyrimidin-4(1H)-one]
10 to 100 | ≤ 15 | CN1CCC(Nc2cccc(Nc3ncc4c(n3)N(C)CN(c3c(Cl)cccc3Cl)C4=O)c2)CC1 [Example 91, 3-(2,6-dichlorophenyl)-1-methyl-7-((3-((1-methylpiperidin-4-yl)amino)phenyl)amino)-2,3-dihydropyrimido[4,5-d]pyrimidin-4(1H)-one]
10 to 100 | 15 to 50 | CCN1CCN(c2ccc(Nc3ncc4c(n3)N(C)CN(c3ccccc3Cl)C4=O)cc2CO)CC1 [Example 113, 3-(2-chlorophenyl)-7-((4-(4-ethylpiperazin-1-yl)-3-(hydroxymethyl)phenyl)amino)-1-methyl-2,3-dihydropyrimido[4,5-d]pyrimidin-4(1H)-one]
≥ 100 | 15 to 50 | CN1CN(c2c(Cl)cccc2Cl)C(=O)c2cnc(Nc3ccc(N4CCN(C5CC5)CC4)cc3)nc21 [Example 115, 7-((4-(4-cyclopropylpiperazin-1-yl)phenyl)amino)-3-(2,6-dichlorophenyl)-1-methyl-2,3-dihydropyrimido[4,5-d]pyrimidin-4(1H)-one]
10 to 100 | 15 to 50 | CN1CN(c2c(Cl)cccc2Cl)C(=O)c2cnc(Nc3ccc(N4CCN(CCO)CC4)cc3)nc21 [Example 116, 3-(2,6-dichlorophenyl)-7-((4-(4-(2-hydroxyethyl)piperazin-1-yl)phenyl)amino)-1-methyl-2,3-dihydropyrimido[4,5-d]pyrimidin-4(1H)-one]
10 to 100 | ≤ 15 | CN1CN(c2c(Cl)cccc2Cl)C(=O)c2cnc(Nc3ccc(C4CCNCC4)cc3)nc21 [Example 119, 3-(2,6-dichlorophenyl)-1-methyl-7-((4-(piperidin-4-yl)phenyl)amino)-2,3-dihydropyrimido[4,5-d]pyrimidin-4(1H)-one]
≥ 100 | 15 to 50 | COCCN1CCN(c2ccc(Nc3ncc4c(n3)N(C)CN(c3c(Cl)cccc3Cl)C4=O)cc2)CC1 [Example 120, 3-(2,6-dichlorophenyl)-7-((4-(4-(2-methoxyethyl)piperazin-1-yl)phenyl)amino)-1-methyl-2,3-dihydropyrimido[4,5-d]pyrimidin-4(1H)-one]

More lines, now with the values behind:

Compound | IC50 (Wee-1 kinase) [nM] | microsomal CLint at 1 μM [1] [µL/min/mg]
Cc1cc(Nc2ncc3c(n2)N(C)CN(c2c(Cl)cccc2Cl)C3=O)ccc1N1C[C@@H]2C[C@H]1CN2 [Example 75, 7-((4-((1S,4S)-2,5-diazabicyclo[2.2.1]heptan-2-yl)-3-methylphenyl)amino)-3-(2,6-dichlorophenyl)-1-methyl-2,3-dihydropyrimido[4,5-d]pyrimidin-4(1H)-one] | ≤ 10 | ≤ 15
COc1cc(Nc2ncc3c(n2)N(C)CN(c2c(Cl)cccc2Cl)C3=O)ccc1N1C[C@@H]2C[C@H]1CN2C [Example 84, 3-(2,6-dichlorophenyl)-7-((3-methoxy-4-((1S,4S)-5-methyl-2,5-diazabicyclo[2.2.1]heptan-2-yl)phenyl)amino)-1-methyl-2,3-dihydropyrimido[4,5-d]pyrimidin-4(1H)-one] | 10 to 100 | 15 to 50
CN1CN(c2ccccc2Cl)C(=O)c2cnc(Nc3ccc(N4CC5CCC(C4)N5C)c(CO)c3)nc21 [Example 97, 3-(2-chlorophenyl)-7-((3-(hydroxymethyl)-4-(8-methyl-3,8-diazabicyclo[3.2.1]octan-3-yl)phenyl)amino)-1-methyl-2,3-dihydropyrimido[4,5-d]pyrimidin-4(1H)-one] | 10 to 100 | ≤ 15
Cc1cccc(Cl)c1N1CN(C)c2nc(Nc3ccc(N4C[C@H](C)NC[C@H]4C)cc3)ncc2C1=O [Example 102, 3-(2-chloro-6-methylphenyl)-7-((4-((2R,5S)-2,5-dimethylpiperazin-1-yl)phenyl)amino)-1-methyl-2,3-dihydropyrimido[4,5-d]pyrimidin-4(1H)-one] | 10 to 100 | ≤ 15
CN1CN(c2ccccc2Cl)C(=O)c2cnc(Nc3ccc(N4CCNC(C)(C)C4)cc3)nc21 [Example 106, 3-(2-chlorophenyl)-7-((4-(3,3-dimethylpiperazin-1-yl)phenyl)amino)-1-methyl-2,3-dihydropyrimido[4,5-d]pyrimidin-4(1H)-one] | 10 to 100 | ≤ 15
COCc1cc(Nc2ncc3c(n2)N(C)CN(c2ccccc2Cl)C3=O)ccc1N1CCNCC1 [Example 108, 3-(2-chlorophenyl)-7-((3-(methoxymethyl)-4-(piperazin-1-yl)phenyl)amino)-1-methyl-2,3-dihydropyrimido[4,5-d]pyrimidin-4(1H)-one] | 10 to 100 | ≤ 15
Cc1cc(Nc2ncc3c(n2)N(C)CN(c2ccccc2Cl)C3=O)ccc1N1C[C@@H]2C[C@H]1CN2 [Example 109, 7-((4-((1S,4S)-2,5-diazabicyclo[2.2.1]heptan-2-yl)-3-methylphenyl)amino)-3-(2-chlorophenyl)-1-methyl-2,3-dihydropyrimido[4,5-d]pyrimidin-4(1H)-one] | 10 to 100 | ≤ 15
C[C@@H]1CN(c2ccc(Nc3ncc4c(n3)N(C)CN(c3ccccc3Cl)C4=O)cc2)[C@@H](C)CN1 [Example 111, 3-(2-chlorophenyl)-7-((4-((2S,5R)-2,5-dimethylpiperazin-1-yl)phenyl)amino)-1-methyl-2,3-dihydropyrimido[4,5-d]pyrimidin-4(1H)-one] | 10 to 100 | ≤ 15
Cc1cc(Nc2ncc3c(n2)N(C)CN(c2c(C)cccc2Cl)C3=O)ccc1N1C[C@@H]2C[C@H]1CN2 [Example 112, 7-((4-((1S,4S)-2,5-diazabicyclo[2.2.1]heptan-2-yl)-3-methylphenyl)amino)-3-(2-chloro-6-methylphenyl)-1-methyl-2,3-dihydropyrimido[4,5-d]pyrimidin-4(1H)-one] | 10 to 100 | ≤ 15
Cc1cc(Nc2ncc3c(n2)N(C)CN(c2c(Cl)cccc2Cl)C3=O)ccc1N1C[C@H]2C[C@@H]1CN2 [Example 118, 7-((4-((1R,4R)-2,5-diazabicyclo[2.2.1]heptan-2-yl)-3-methylphenyl)amino)-3-(2,6-dichlorophenyl)-1-methyl-2,3-dihydropyrimido[4,5-d]pyrimidin-4(1H)-one] | 10 to 100 | ≤ 15
Cc1cc(Nc2ncc3c(n2)N(C)CN(c2c(Cl)cccc2Cl)C3=O)ccc1N1C[C@H]2C[C@@H]1CN2C [Example 121, 3-(2,6-dichlorophenyl)-1-methyl-7-((3-methyl-4-((1R,4R)-5-methyl-2,5-diazabicyclo[2.2.1]heptan-2-yl)phenyl)amino)-2,3-dihydropyrimido[4,5-d]pyrimidin-4(1H)-one] | 10 to 100 | 15 to 50
